Converted amounts (≈) assume the structure as drawn.
Assays:
Oryctolagus cuniculus [1] = organism: Oryctolagus cuniculus; assay: The compound was tested for inhibition of rabbit platelet aggregation induced by ADP, activity compared with PGE1 as standard was found to be <1/400; type: functional
Oryctolagus cuniculus [2] = organism: Oryctolagus cuniculus; assay: The compound was tested for inhibition of rabbit platelet aggregation induced by ADP, activity compared with PGE1 as standard was found to be 1/80.; type: functional
Oryctolagus cuniculus [3] = organism: Oryctolagus cuniculus; assay: The compound was tested for inhibition of rabbit platelet aggregation induced by ADP, activity compared with PGE1 as standard; type: functional
Rattus norvegicus = organism: Rattus norvegicus; assay: The compound was tested for inhibition of rat platelet aggregation induced by ADP; type: functional
Homo sapiens = organism: Homo sapiens; assay: The compound was tested for inhibition of human platelet aggregation induced by ADP; type: functional
Oryctolagus cuniculus [4] = organism: Oryctolagus cuniculus; assay: The compound was tested for inhibition of rabbit platelet aggregation induced by collagen; type: functional
Cavia porcellus = organism: Cavia porcellus; assay: The compound was tested for inhibition of guinea pig platelet aggregation induced by ADP; type: functional
Oryctolagus cuniculus [5] = organism: Oryctolagus cuniculus; assay: The compound was tested for inhibition of rabbit platelet aggregation induced by ADP; type: functional, organism-based
Canis familiaris = organism: Canis familiaris; assay: The compound was tested for inhibition of dog platelet aggregation induced by ADP; type: functional; details: Canis lupus familiaris
Oryctolagus cuniculus [6] = organism: Oryctolagus cuniculus; assay: The compound was tested for inhibition of rabbit platelet aggregation induced by arachidonic acid; type: functional
Oryctolagus cuniculus [7] = organism: Oryctolagus cuniculus; assay: The compound was tested for inhibition of rabbit platelet aggregation induced by ADP; activity compared with PGE1 as standard was found to be 1/1.2; type: functional
Oryctolagus cuniculus [8] = organism: Oryctolagus cuniculus; assay: The compound was tested for inhibition of rabbit platelet aggregation induced by ADP, activity compared with PGE1 as standard was found to be 1/3.6; type: functional

IC50 (Rattus norvegicus) | IC50 (Homo sapiens) | IC50 (Oryctolagus cuniculus [4]) | IC50 (Cavia porcellus) | IC50 (Oryctolagus cuniculus [5]) | IC50 (Canis familiaris) | IC50 (Oryctolagus cuniculus [6]) | SMILES | Relative activity (Oryctolagus cuniculus [1]) | other results
 |  |  |  |  |  |  | CCCC[C@H](C)C[C@@H](O)/C=C/[C@@H]1[C@H]2C[C@H](CCOCC(=O)O)C[C@H]2C[C@H]1O | < 0.0025 | 
 |  |  |  |  |  |  | CCCCC[C@H](O)/C=C/[C@@H]1[C@H]2C[C@H](CCCCC(=O)O)C[C@H]2C[C@H]1O |  | Relative activity (Oryctolagus cuniculus [2]): 0.0125
0.0344 µg/mL (≈ 0.097 µM) | 0.0136 µg/mL (≈ 0.0384 µM) | 0.0132 µg/mL (≈ 0.0372 µM) | 0.0025 µg/mL (≈ 0.00705 µM) | 0.0207 µg/mL (≈ 0.0584 µM) | 0.0038 µg/mL (≈ 0.0107 µM) | 0.0359 µg/mL (≈ 0.101 µM) | CCCCC[C@H](O)/C=C/[C@H]1[C@H](O)CC(=O)[C@@H]1CCCCCCC(=O)O [ALPROSTADIL] |  | Relative activity (Oryctolagus cuniculus [3]): 1
 |  |  |  |  |  |  | CCCC[C@H](C)C[C@H](O)/C=C/[C@@H]1[C@H]2C[C@H](CCOCC(=O)O)C[C@H]2C[C@@H]1O | < 0.0025 | 
0.0098 µg/mL (≈ 0.0256 µM) | 0.0125 µg/mL (≈ 0.0327 µM) | 0.0183 µg/mL (≈ 0.0478 µM) | 0.0031 µg/mL (≈ 0.0081 µM) | 0.0241 µg/mL (≈ 0.063 µM) | 0.0043 µg/mL (≈ 0.0112 µM) | 0.0476 µg/mL (≈ 0.124 µM) | CCCC[C@H](C)C[C@H](O)/C=C/[C@@H]1[C@H]2C[C@H](CCOCC(=O)O)C[C@H]2C[C@H]1O |  | Relative activity (Oryctolagus cuniculus [7]): 0.833
 |  |  |  |  |  |  | CCCC[C@@H](C)C[C@H](O)/C=C/[C@@H]1[C@H]2C[C@H](CCOCC(=O)O)C[C@H]2C[C@H]1O |  | Relative activity (Oryctolagus cuniculus [8]): 0.278

— ChEMBL document CHEMBL1127169, “Syntheses of new 3-oxa-methano-PGI1 derivatives and their biological properties” (Bioorg Med Chem Lett, 1993)
